# Measured values reported in patent US9719981B2, “RAC1 inhibitors for the treatment of alport glomerular disease” (Father Flanagan's Boys' Home, priority 2012, dated 2017).
# Read-outs that look alike come from different tables or passages of the source.
# Tests used:
# [1] = test system: 129 Sv/J autosomal Alport mice; assay type: in vivo
# Description: Immunofluorescence microscopy. Fresh frozen kidneys were sectioned at 8-μm and acetone fixed. Sections were incubated overnight at 4° C. in primary antibody solution. The dual stain consisting of rat anti-mouse Laminin-α2 antibody (Sigma-Aldrich, St. Louis, Mo.) at 1:200 and rabbit anti-mouse phospho-FAK 397 antibody at 1:25 as well as the dual stain of goat anti-mouse Integrin α8 antibody (R & D Systems, Minneapolis, Minn.) at 1:1000 and rabbit anti-mouse Laminin-5 antibody, at 1:1000 were diluted in 0.3% PBST+5% FBS. Rabbit anti-mouse Fibronectin antibody at 1:300 and rat anti-mouse CD11b antibody at 1:100 were diluted in 7% Milk. Slides were rinsed with 1×PBS and incubated with the appropriate Alexa Fluor donkey secondary antibodies at 1:300 for 1 hour at room temperature. They were then rinsed again with 1×PBS and mounted with Vectashield Mounting Medium with DAPI (Vector, Burlingame, Calif.). The dual stain of mouse-anti rat Laminin α1 antibody at 1:300 and rabbit anti-mouse phospho-FAK 397 antibody at 1:25 were diluted in 0.3% PBST+5% NGS and incubated overnight at 4° C. Slides were rinsed with 1×PBS and incubated with the appropriate Alexa Fluor goat secondary antibodies at 1:300 for 1 hour at room temperature. They were then rinsed again with 1×PBS and mounted with Vectashield Mounting Medium with DAPI.
# (§1) Real time qRT-PCR. Total RNA was reverse transcribed using […]® III (Invitrogen, Life Technologies, Grand Island, N.Y.) with Oligo(dT)20 Primer (Invitrogen). The real time PCR was carried out using TAQMAN® Gene Expression Master Mix (Applied Biosystems, Life Technologies, Grand Island, N.Y.), and quantified using STEPONEPLUS™ Real-Time PCR System (Applied Biosystems). Samples were normalized to Mouse GAPDH Endogenous Control VIC® Probe (Applied Biosystems catalogue #4352339E) which was run alongside MMP-9 (Catalog #4331182, ID# Mm00442991_m1), MMP-10 (Catalog #4331182, ID# Mm00444630_m1), MMP-12 (Catalog #4331182, ID# Mm00500554_m1), IL-6 (Catalog #4331182, ID# Mm00446190_m1), NFKbia (Catalog #4331182, ID# Mm00477798_m1), and FAK (Catalog #4331182, ID# Mm00433209_m1) TAQMAN® Gene Expression Assay Probes (Applied Biosystems). Samples were run in triplicate with a final reaction volume of 20 ul with the following cycling parameters: 50° C. for 2 min, 95° C. for 10 min, followed by 40 cycles of a two-step PCR consisting of 95° C. for 15 s and 60° C. for 1 min. Relative changes in gene expression were determined by calculating the fold change using the comparative CT method of 2^−ΔΔCT. Data are expressed as the mean with standard deviation for at least four independent RNA samples per data point.
# Treatment of mice with TAE226. Four Col 4A3 knockout mice from 129 Sv/J background were given 50 mg/Kg TAE226 (ChemScene, LLC Monmouth Junction, N.J.) 1× daily by gavage needle starting at two weeks of age until seven weeks old. The TAE226 was diluted in a 0.5% carboxy methyl cellulose suspension. Three control Col 4a3 knockout mice of the same age were given 0.5% CMC suspension alone and served as controls.
# Albumin and creatinine assays. Urine was collected weekly and albumin concentrations were analyzed as instructed using a mouse albumin ELISA kit #MSAKT from Molecular Innovations (Novi, Mich.). Albumin levels were normalized to creatinine using QuantiChrom Creatinine Assay Kit (DICT-500) (BioAssay Systems, Hayward, Calif.) as instructed.
# Transmission electron microscopy. Transmission electron microscopy was performed as described previously (Cosgrove et al., 2000, Am J Pathol; 157: 1649-1659).
# cultured podocytes = test: Real time qRT-PCR for MMP transcripts in cultured podocytes, static and stretched; assay type: cell-based, mouse; settings: relative to untreated cells
# Description: NF-κB Staining and −/+ Stretch pFAK397 Western Blot. GEC's were differentiated under “non-permissive” conditions for ten days, plated onto Bioflex 6-well plates (Flexcell International, Hillsborough, N.C.) coated with Collagen Type 1 (rat tail, BD Biosciences, Bedford, Mass.)/Placental Laminin (Sigma), cultured for two days in 0.5% FCS and exposed to mechanical strain for 4 hours, as previously described (Meehan et al., 2009, Kidney Int; 76: 968-976). For NF-κB Staining, cells were fixed with 2% PFA, 4% Sucrose in PBS for 10 minutes, permeabilized with 0.3% Triton, as previously described (Rao et al., 2006, Am J Pathol; 169: 32-46) incubated with αNF-κB P65 antibody at 1:50 overnight at 4° C., incubated with anti-rabbit secondary antibody at 1:750 for two hours at room temperature, gaskets were cut out, mounted on slides with […]™ (Vector Laboratories, Burlingame, Calif.) and cover slipped. For −/+ Stretch pFAK Western, protein was collected in M-PER (Thermo Scientific) as above and Western Blot run as described below.
# NF-κB SN50, Inhibitor Peptide Treatment, GEC's were cultured as described above, 10 μM NF-κB SN50 Inhibitor Peptide (EMD Millipore, Billerica, Mass.) was added (and after one additional hour) exposed to 20 hours of mechanical strain and RNA collected as previously described (Meehan et al., 2009, Kidney Int; 76: 968-976).
# as §1
# [2] = 50 mg/Kg daily, 2 to 7 weeks, relative to vehicle
# [3] = at 6 weeks of age, relative to vehicle
# [4] = by 7 weeks of age, relative to vehicle
structure (smiles),measurement,setting,value
CNC(=O)c1ccccc1Nc1nc(Nc2ccc(N3CCOCC3)cc2OC)ncc1Cl [TAE226],pFAK immunostaining in podocytes in vivo,"[1]; 50 mg/Kg 1× daily by gavage, two to seven weeks of age",abolished
same,Glomerular mRNA expression level of MMP-9,[1]; [2],significantly reduced
same,Glomerular mRNA expression level of MMP-10,[1]; [2],significantly reduced
same,Glomerular mRNA expression level of MMP-12,[1]; [2],significantly reduced
same,Monocytic infiltration (CD11b immunostaining),[1]; 7 weeks of age,remarkably robust reduction
same,Renal scarring (fibronectin immunostaining),[1]; 7 weeks of age,remarkably robust reduction
same,GBM architecture (transmission electron microscopy),"[1]; 7 weeks of age, relative to vehicle",markedly improved
same,Glomerulosclerosis,[1]; Alport mice,ameliorated
same,Blood urea nitrogen levels,[1]; [3],significant reduction
same,Proteinuria,[1]; [3],significant reduction
same,Blood urea nitrogen levels,[1]; [4],loose significance
same,Proteinuria,[1]; [4],loose significance
same,Mesangial process invasion of glomerular capillary loops,"[1]; integrin α8 / laminin α5 immunostaining, vs vehicle",amelioration
same,MMP-10 message levels in stretched podocytes,cultured podocytes; biomechanical stretch,reduced
same,MMP-12 message levels in stretched podocytes,cultured podocytes; biomechanical stretch,reduced
same,MMP-10 expression in podocytes,cultured podocytes; static conditions,reduced expression
same,MMP-12 expression in podocytes,cultured podocytes; static conditions,reduced expression
